What was measured:
[1] = (§1) The drug is tested on Z-029 corresponding to rat gut metagenome with ENA study accession number: PRJEB37062 and ENA sample accession number: ERS12561828 for biotransformation under anaerobic condition. The drug concentrations were measured over 9 timepoints collected between 0 and 24 hours of incubation by liquid-chromatography-coupled mass spectrometry (LC–MS); details: 2 µM
[2] = as §1, with “on Z-028” for “on Z-029”, “to mouse” for “to rat”, “number: ERS12561827” for “number: ERS12561828”; details: 2 µM
[3] = as §1, with “on Z-018” for “on Z-029”, “to pig” for “to rat”, “number: ERS12561817” for “number: ERS12561828”; details: 2 µM
[4] = as §1, with “on Z-013” for “on Z-029”, “to rabbit” for “to rat”, “number: ERS12561813” for “number: ERS12561828”; details: 2 µM
[5] = as §1, with “Z-012” for “Z-029”, “to” for “to rat gut”, “ERS12561812” for “ERS12561828”; details: 2 µM
[6] = as §1, with “Z-010” for “Z-029”, “to” for “to rat gut”, “ERS12561810” for “ERS12561828”; details: 2 µM
[7] = as §1, with “on Z-002” for “on Z-029”, “to rabbit” for “to rat”, “number: ERS12561802” for “number: ERS12561828”; details: 2 µM
[8] = as §1, with “on WLS-370” for “on Z-029”, “to human” for “to rat”, “number: ERS12561793” for “number: ERS12561828”; details: 2 µM
[9] = as §1, with “on WLS-350” for “on Z-029”, “to human” for “to rat”, “number: ERS12561789” for “number: ERS12561828”; details: 2 µM
[10] = as §1, with “on WLS-240” for “on Z-029”, “to human” for “to rat”, “number: ERS12561773” for “number: ERS12561828”; details: 2 µM
[11] = as §1, with “on WLS-098” for “on Z-029”, “to human” for “to rat”, “number: ERS12561754” for “number: ERS12561828”; details: 2 µM
[12] = as §1, with “on WLS-082” for “on Z-029”, “to human” for “to rat”, “number: ERS12561751” for “number: ERS12561828”; details: 2 µM
[13] = as §1, with “on WLS-038” for “on Z-029”, “to human” for “to rat”, “number: ERS12561745” for “number: ERS12561828”; details: 2 µM
[14] = human gut metagenome, 24 h, 2 µM
[15] = human gut metagenome, 24 h, 2 µM; remark: listed apart in the source
[16] = human gut metagenome, 24 h, 2 µM; remark: listed apart in the source
[17] = human gut metagenome, 24 h, 2 µM; remark: listed apart in the source
[18] = human gut metagenome, 24 h, 2 µM; remark: listed apart in the source
[19] = human gut metagenome, 24 h, 2 µM; remark: listed apart in the source
[20] = human gut metagenome, 24 h, 2 µM; remark: listed apart in the source
Further: call rule not given here.

SMILES: Cc1cn([C@H]2C[C@H](N=[N+]=[N-])[C@@H](CO)O2)c(=O)[nH]c1=O [ZIDOVUDINE]
- Bacterial Biotransformation [1]: Compound metabolized
- Bacterial Biotransformation [2]: Compound metabolized
- Bacterial Biotransformation [3]: Compound NOT metabolized
- Bacterial Biotransformation [4]: Compound NOT metabolized
- Bacterial Biotransformation [5]: Compound metabolized
- Bacterial Biotransformation [6]: Compound NOT metabolized
- Bacterial Biotransformation [7]: Compound metabolized
- Bacterial Biotransformation [8]: Compound NOT metabolized
- Bacterial Biotransformation [9]: Compound NOT metabolized
- Bacterial Biotransformation [10]: Compound NOT metabolized
- Bacterial Biotransformation [11]: Compound NOT metabolized
- Bacterial Biotransformation [12]: Compound NOT metabolized
- Bacterial Biotransformation [13]: Compound NOT metabolized
- Bacterial Biotransformation [14]: Compound NOT metabolized
- Bacterial Biotransformation [15]: Compound NOT metabolized
- Bacterial Biotransformation [16]: Compound NOT metabolized
- Bacterial Biotransformation [17]: Compound metabolized
- Bacterial Biotransformation [18]: Compound NOT metabolized
- Bacterial Biotransformation [19]: Compound NOT metabolized
- Bacterial Biotransformation [20]: Compound NOT metabolized

Source: ChEMBL document CHEMBL5724914, “Linking interpersonal differences in gut microbiota composition and drug biotransformation activity” (2024)
